ChEMBL document CHEMBL3616435, “Cytotoxic cardenolides from the latex of Calotropis procera” (Bioorg Med Chem Lett, 2015)

What follows are molecules tested on Mycobacterium tuberculosis (assay: Antimicrobial activity against Mycobacterium bovis BCG after 3 days by broth microdilution method). Settings: variant bovis BCG, 72 h.
Type: functional
Molecule `C[C@@H]1C[C@@H](O)[C@]2(O)O[C@@H]3C[C@@]4(C=O)[C@@H](CC[C@@H]5[C@@H]4CC[C@]4(C)[C@@H](C6=CC(=O)OC6)C[C@@H](O)[C@]54O)C[C@H]3O[C@@H]2C1` has an MIC of over 80 µg/mL.
For `CO[C@@H]1C[C@@H](C)C[C@H]2O[C@@H]3C[C@@H]4CC[C@@H]5[C@H](CC[C@]6(C)[C@@H](C7=CC(=O)OC7)C[C@@H](O)[C@]56O)[C@@]4(C=O)C[C@H]3O[C@@]12O`, the MIC was over 80 µg/mL.
`C[C@@H]1C[C@@H](O)[C@]2(O)O[C@@H]3C[C@@]4(C)[C@@H](CC[C@@H]5[C@@H]4CC[C@]4(C)[C@@H](C6=CC(=O)OC6)C[C@@H](O)[C@]54O)C[C@H]3O[C@@H]2C1` gave an MIC of over 80 µg/mL.
With `C[C@H]1C[C@H]2O[C@@H]3C[C@@H]4CC[C@@H]5[C@H](CC[C@]6(C)[C@@H](C7=CC(=O)OC7)CC[C@]56O)[C@@]4(C=O)C[C@H]3O[C@@]2(O)[C@H](O)[C@@H]1O` the MIC was over 80 µg/mL.
In the case of `C[C@H]1C[C@H]2O[C@@H]3C[C@@H]4CC[C@@H]5[C@H](CC[C@]6(C)[C@@H](C7=CC(=O)OC7)C[C@@H](O)[C@]56O)[C@@]4(C=O)C[C@H]3O[C@@]2(O)[C@@]2(C1)N=CCS2`, the MIC is reported as over 80 µg/mL.
`C[C@]12[C@H](O)C[C@H]3[C@@H](CC[C@H]4C[C@H](O)CC[C@@]43CO)[C@@]1(O)CC[C@@H]2C1=CC(=O)OC1` showed an MIC of over 80 µg/mL.
Molecule `C[C@]12[C@H](O)C[C@H]3[C@@H](CC[C@H]4C[C@H](O)CC[C@@]43C=O)[C@@]1(O)CC[C@@H]2C1=CC(=O)OC1` has an MIC of over 80 µg/mL.
For `C[C@]12C[C@@H](O)[C@H](O)C[C@@H]1CC[C@@H]1[C@@H]2CC[C@]2(C)[C@@H](C3=CC(=O)OC3)C[C@@H](O)[C@]12O`, the MIC was over 80 µg/mL.
In the case of `C[C@]12[C@H](O)C[C@H]3[C@@H](CC[C@H]4C[C@@H](O)CC[C@@]43CO)[C@@]1(O)CC[C@@H]2C1=CC(=O)OC1`, the MIC is reported as over 80 µg/mL.
Molecule `C[C@@H]1C[C@@H](O)[C@]2(O)O[C@@H]3C[C@@]4(C=O)[C@@H](CC[C@@H]5[C@@H]4CC[C@]4(C)[C@@H](C6=CC(=O)OC6)CC[C@]54O)C[C@H]3O[C@@H]2O1` [CALACTIN] has an MIC of over 80 µg/mL.
`C[C@@H]1C[C@@]2(N=CCS2)[C@]2(O)O[C@@H]3C[C@@]4(C=O)[C@@H](CC[C@@H]5[C@@H]4CC[C@]4(C)[C@@H](C6=CC(=O)OC6)CC[C@]54O)C[C@H]3O[C@@H]2O1` [USCHARIN] gave an MIC of over 80 µg/mL.
